The subject of assay [1] is human lymphoma cell line RAMOS cells. The assay can be described thus: Cell growth inhibition test using RAMOS cell, MTT assay. It counts as cell-based. Particulars: 50% growth inhibition concentration. As to the method:
A cell growth inhibition test was carried out by treating human lymphoma cell line RAMOS cells with a test compound for a given period and then counting the number of viable cells by MTT assay or CellTiter-Glo Luminescent Cell Viability Assay (manufactured by Promega Corp.; hereinafter, referred to as ATP assay).
RAMOS cells were suspended in a medium (RPMI1640 medium containing 10% fetal bovine serum). The cell suspension was inoculated at 5000 cells/150 μL/well to a 96-well multiwell plate. The test compound was dissolved in DMSO, and this solution was diluted with medium to prepare a sample solution (DMSO concentration: 1% or lower). Subsequently, test compound-free medium or the sample solution was added thereto at 50 μL/well. The MTT assay was carried out at the day of addition of the sample solution or the DMSO dilution to the cells and after culture at 37° C. for 3 days under 5% CO2 of the cells supplemented with the sample solution or the medium. The MTT assay was carried out as follows.
A 5 mg/mL solution of MTT (3-(4,5-dimethylthiazol-2-yl)-2,5-diphenyltetrazolium bromide, Sigma-Aldrich Corp., M-2128) was prepared using a phosphate buffered solution (Dulbecco's phosphate-buffered saline). This MTT solution was added at 20 μL/well to the plate. Then, the plate was incubated at 37° C. for 4 hours under 5% CO2. The plate was centrifuged at 1200 rpm for 5 minutes, and then, the culture supernatant was removed by suction using a dispenser. DMSO was added thereto at 150 μL/well to dissolve formed formazan. […] from each well was rendered uniform by the stirring of the plate using a plate mixer. The absorbance of each well was measured using a plate reader under conditions involving OD of 540 nm and reference of 660 nm.
The number of viable cells and absorbance (hereinafter, referred to as an OD value) have been confirmed to correlate with each other. Therefore, the rate of cell growth was calculated according to the following expression: Rate of cell growth (T/C %) of a test compound-supplemented well=100×[(B−C)/(A−C)] wherein A represents the OD value (final culture date) of a test compound-free well; B represents the OD value (final culture date) of a test compound-containing well; and C represents the OD value (day of cell inoculation) of a well at the start of contact of the cells with the test compound.
T/C % at each concentration of the test compound was determined. The concentration at which the test compound offered 50% growth rate was calculated as a 50% growth inhibition concentration (GI50) value from the growth rates at two points interpolating 50% and the concentrations, and is shown in Table 56.

The next assay addresses T1, TIP48/TIP49 complex (Homo sapiens, UniProt Q9Y230+Q9Y265).
T1 construct: made in house; host or cells: E. coli
The assay can be described thus: ATPase assay of TIP48/TIP49 complex (ADP-Glo). It counts as biochemical. Particulars: concentration at which the ATPase activity was inhibited by 50%. In short, it runs like this: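 Recombinant human TIP48 and TIP49 expressed in E. coli (24.5 μg/mL final) were incubated 1.5 h at room temperature with compound (0.0007–200 μM, 2% DMSO) in Tris-HCl pH 7.5 buffer containing MgCl2 and ATP. ADP formed was detected by ADP-Glo luminescence; inhibition came from dose-response curves.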

The test system of assay [2] is human lymphoma cell line RAMOS cells. The assay can be described thus: Cell growth inhibition test using RAMOS cell, ATP assay (CellTiter-Glo). It counts as cell-based. Particulars: Homo sapiens, 72 h, cultured 3 days, 50% growth inhibition concentration. The procedure, abridged:
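RAMOS cells seeded at 4000 cells/well with compound and cultured 3 days at 37° C, 5% CO2; viability by CellTiter-Glo luminescence. Growth rate T/C % = 100×[(B−C)/(A−C)] using day-0 and final readings; GI50 interpolated from the two concentrations bracketing 50% growth.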

pIC50: −log10 of the molar value.

T1 sequence (Q9Y230 whole entry): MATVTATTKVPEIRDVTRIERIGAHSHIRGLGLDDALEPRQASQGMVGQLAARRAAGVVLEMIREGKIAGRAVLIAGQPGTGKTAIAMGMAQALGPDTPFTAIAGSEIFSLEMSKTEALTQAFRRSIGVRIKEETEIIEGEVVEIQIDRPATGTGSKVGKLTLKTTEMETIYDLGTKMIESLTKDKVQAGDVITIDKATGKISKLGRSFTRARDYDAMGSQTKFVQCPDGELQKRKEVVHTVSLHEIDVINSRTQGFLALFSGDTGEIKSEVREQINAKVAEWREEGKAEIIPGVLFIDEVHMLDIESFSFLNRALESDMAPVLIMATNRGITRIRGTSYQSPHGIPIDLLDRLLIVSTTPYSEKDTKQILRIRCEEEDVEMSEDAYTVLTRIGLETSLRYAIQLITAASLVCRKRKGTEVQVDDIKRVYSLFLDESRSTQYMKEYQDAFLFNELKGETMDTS
T1 sequence (Q9Y265 whole entry): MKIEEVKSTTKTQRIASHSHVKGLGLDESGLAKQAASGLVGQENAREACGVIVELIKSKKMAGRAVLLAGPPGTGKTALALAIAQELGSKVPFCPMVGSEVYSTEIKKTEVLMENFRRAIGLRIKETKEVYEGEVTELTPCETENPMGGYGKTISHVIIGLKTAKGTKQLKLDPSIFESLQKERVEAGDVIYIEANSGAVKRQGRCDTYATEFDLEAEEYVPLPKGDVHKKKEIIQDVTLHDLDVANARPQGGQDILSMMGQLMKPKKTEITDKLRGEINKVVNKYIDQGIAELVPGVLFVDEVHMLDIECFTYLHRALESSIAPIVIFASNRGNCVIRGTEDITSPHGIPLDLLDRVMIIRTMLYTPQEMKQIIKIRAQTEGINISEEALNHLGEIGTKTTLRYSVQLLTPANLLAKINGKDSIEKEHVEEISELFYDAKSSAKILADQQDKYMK

Turning to `COc1ccc(CN(C)Cc2c(NC(=O)CC(C)(C)CNC(=O)c3cc(Cl)ccc3OC)c(=O)n(-c3ccccc3)n2C)c(OC)c1` [Example 3, 5-Chloro-N-{4-[(5-{[(2,4-dimethoxyphenylmethyl)-methylamino]methyl}-1-methyl-3-oxo-2-phenyl-2,3-dihydro-1H-pyrazol-4-yl)amino]-2,2-dimethyl-4-oxobutyl}-2-methoxybenzamide], it took 850 nM to inhibit growth in assay [1] by half (GI50). For the same molecule, at TIP48/TIP49 complex, the pIC50 is 7.27.
Consider `CNCc1c(NC(=O)CC(C)(C)CNC(=O)c2cc(Cl)ccc2OC)c(=O)n(-c2ccccc2)n1C` [Example 4, 5-Chloro-N-(2,2-dimethyl-4-{[1-methyl-5-(methylaminomethyl)-3-oxo-2-phenyl-2,3-dihydro-1H-pyrazol-4-yl]amino}-4-oxobutyl)-2-methoxybenzamide], for which halving of growth in assay [1] (GI50) required 170 nM. Also, the pIC50 on TIP48/TIP49 complex is 7.32.
With `COc1ccc(Cl)cc1C(=O)NCC(C)(C)CC(=O)Nc1c(CN(C)C)n(C)n(-c2ccccc2)c1=O` [Example 5, 5-Chloro-N-[4-({5-[(dimethylamino)methyl]-1-methyl-3-oxo-2-phenyl-2,3-dihydro-1H-pyrazol-4-yl}amino)-2,2-dimethyl-4-oxobutyl]-2-methoxybenzamide], in assay [1], the 50% growth inhibitory concentration (GI50) is 180 nM. For the same molecule, the negative-log IC50 (pIC50) at TIP48/TIP49 complex is 6.77.
Regarding `COc1cc(F)c(Cl)cc1C(=O)NCC(C)(C)CC(=O)Nc1c(CN(C)C)n(C)n(-c2ccccc2)c1=O` [Example 6, 5-Chloro-N-[4-({5-[(dimethylamino)methyl]-1-methyl-3-oxo-2-phenyl-2,3-dihydro-1H-pyrazol-4-yl}amino)-2,2-dimethyl-4-oxobutyl]-4-fluoro-2-methoxybenzamide], the GI50 in assay [1] came out at 170 nM. Moreover, the negative-log IC50 (pIC50) against TIP48/TIP49 complex is 6.82.
With `CCOc1cc(F)c(Cl)cc1C(=O)NCC(C)(C)CC(=O)Nc1c(C(C)OC)n(C)n(-c2ccccc2)c1=O` (stereo not drawn) [Example 122, 5-Chloro-2-ethoxy-4-fluoro-N-(4-{[5-(1-methoxyethyl)-1-methyl-3-oxo-2-phenyl-2,3-dihydro-1H-pyrazol-4-yl]amino}-2,2-dimethyl-4-oxobutyl)benzamide], the concentration for 50% growth inhibition (GI50) in assay [2] (Ramos) is 140 nM. For the same molecule, on TIP48/TIP49 complex, the pIC50 is 6.34.
For `CCOc1cc(F)c(Cl)cc1C(=O)NCC(C)(C)CC(=O)Nc1c([C@H](C)OC)n(C)n(-c2ccccc2)c1=O` [Example 123, 5-Chloro-2-ethoxy-4-fluoro-N-(4-{[5-((1S)-methoxyethyl)-1-methyl-3-oxo-2-phenyl-2,3-dihydro-1H-pyrazol-4-yl]amino}-2,2-dimethyl-4-oxobutyl)benzamide], in that order: 120 nM and 7.41.
Taken in the same sequence, the figures for `CCOc1cc(F)c(Cl)cc1C(=O)NCC(C)(C)CC(=O)Nc1c([C@@H](C)OC)n(C)n(-c2ccccc2)c1=O` [Example 124, 5-Chloro-2-ethoxy-4-fluoro-N-(4-{[5-((1R)-1-methoxyethyl)-1-methyl-3-oxo-2-phenyl-2,3-dihydro-1H-pyrazol-4-yl]amino}-2,2-dimethyl-4-oxobutyl)benzamide] were 140 nM and 7.42.
Consider `CCOc1ccc(Cl)cc1C(=O)NCC(C)(C)CC(=O)Nc1c(C(C)OC)n(C)n(-c2ccccc2)c1=O` (stereo not drawn) [Example 125, 5-Chloro-2-ethoxy-N-(4-{[5-(1-methoxyethyl)-1-methyl-3-oxo-2-phenyl-2,3-dihydro-1H-pyrazol-4-yl]amino}-2,2-dimethyl-4-oxobutyl)benzamide], for which the GI50 in assay [2] (Ramos) was determined as 140 nM. The same molecule showed a negative-log IC50 (pIC50) against TIP48/TIP49 complex of 7.44.
For `CCOc1ncc(Cl)cc1NC(=O)CC(C)(C)CC(=O)Nc1c(C(C)OC)n(C)n(-c2ccccc2)c1=O` (stereo not drawn) [Example 126, N-(5-Chloro-2-ethoxy-3-pyridyl)-N′-[5-(1-methoxyethyl)-1-methyl-3-oxo-2-phenyl-2,3-dihydro-1H-pyrazol-4-yl]-3,3-dimethylpentanediamide], in that order: 580 nM and 7.25.
Turning to `CCc1c(NC(=O)CC(C)(C)CNC(=O)c2cc(Cl)ccc2OCOC)c(=O)n(-c2ccccc2)n1C` [Example 127, 5-Chloro-N-{4-[(5-ethyl-1-methyl-3-oxo-2-phenyl-2,3-dihydro-1H-pyrazol-4-yl)amino]-2,2-dimethyl-4-oxobutyl}-2-(methoxymethoxy)benzamide], growth in assay [2] (Ramos) was halved (GI50) at 130 nM. Moreover, on TIP48/TIP49 complex, the pIC50 was 7.26.
In assay [2] (Ramos), `CCOc1ccc(Cl)cc1C(=O)NCC(C)(C)CC(=O)Nc1c(CCCC(=O)N(C)C)n(C)n(-c2ccccc2)c1=O` [Example 129, 5-Chloro-N-[4-({5-[4-(dimethylamino)-4-oxobutyl]-1-methyl-3-oxo-2-phenyl-2,3-dihydro-1H-pyrazol-4-yl}amino)-2,2-dimethyl-4-oxobutyl]-2-ethoxybenzamide] registered a 50% growth inhibitory concentration (GI50) of 190 nM. This molecule also had a negative-log IC50 (pIC50) against TIP48/TIP49 complex of 7.28.
In the case of `CCOc1ccc(Cl)cc1C(=O)NCC(C)(C)CC(=O)Nc1c(CCCCO)n(C)n(-c2ccccc2)c1=O` [Example 130, 5-Chloro-2-ethoxy-N-(4-{[5-(4-hydroxybutyl)-1-methyl-3-oxo-2-phenyl-2,3-dihydro-1H-pyrazol-4-yl]amino}-2,2-dimethyl-4-oxobutyl)benzamide], in assay [2] (Ramos), the 50% growth inhibitory concentration (GI50) worked out at 64 nM. Besides, the pIC50 against TIP48/TIP49 complex was 7.27.
Taken in the same sequence, the figures for `CCOc1ccc(Cl)cc1C(=O)NCC(C)(C)CC(=O)Nc1c(CC(=O)OC)n(C)n(-c2ccccc2)c1=O` [Example 131, Methyl 2-[4-({4-[(5-chloro-2-ethoxybenzoyl)amino]-3,3-dimethylbutanoyl}amino)-2-methyl-5-oxo-1-phenyl-2,3-dihydro-1H-pyrazol-3-yl]acetate] were 130 nM and 7.21.
For `CCOc1ccc(Cl)cc1C(=O)NCC(C)(C)CC(=O)Nc1c(CC(N)=O)n(C)n(-c2ccccc2)c1=O` [Example 132, N-(4-{[5-(2-Amino-2-oxoethyl)-1-methyl-3-oxo-2-phenyl-2,3-dihydro-1H-pyrazol-4-yl]amino}-2,2-dimethyl-4-oxobutyl)-5-chloro-2-ethoxybenzamide], in that order: 120 nM and 7.00.
For `CCOc1ccc(Cl)cc1C(=O)NCC(C)(C)CC(=O)Nc1c(CCC(=O)N2CCCC2)n(C)n(-c2ccccc2)c1=O` [Example 133, 5-Chloro-N-(2,2-dimethyl-4-{[1-methyl-3-oxo-5-(3-oxo-3-pyrrolidin-1-ylpropyl)-2-phenyl-2,3-dihydro-1H-pyrazol-4-yl]amino}-4-oxobutyl)-2-ethoxybenzamide], in that order: 500 nM and 7.09.
In assay [2] (Ramos), `CCOc1ccc(Cl)cc1C(=O)NCC(CF)(CF)CC(=O)Nc1c(COC)n(C)n(-c2ccccc2)c1=O` [Example 148, N-(2,2-Bis(fluoromethyl)-4-{[5-(methoxymethyl)-1-methyl-3-oxo-2-phenyl-2,3-dihydro-1H-pyrazol-4-yl]amino}-4-oxobutyl)-5-chloro-2-ethoxybenzamide] yielded a GI50 of 230 nM. Moreover, at TIP48/TIP49 complex, the negative-log IC50 (pIC50) was 7.08.
For `CCOc1ccc(Cl)cc1C(=O)NCC(C)(C)CC(=O)Nc1c(CCC(F)(F)F)n(C)n(-c2ccccc2)c1=O` [Example 158, 5-Chloro-N-(2,2-dimethyl-4-{[1-methyl-3-oxo-2-phenyl-5-(3,3,3-trifluoropropyl)pyrazol-4-yl]amino}-4-oxobutyl)-2-ethoxybenzamide], in that order: 310 nM and 7.48.
`CCOc1cc(F)c(Cl)cc1C(=O)NCC(C)(C)C(C)C(=O)Nc1c(COC)n(C)n(-c2ccccc2)c1=O` (stereo not drawn) [Example 159, 5-Chloro-2-ethoxy-4-fluoro-N-(4-{[5-(methoxymethyl)-1-methyl-3-oxo-2-phenyl-2,3-dihydro-1H-pyrazol-4-yl]amino}-2,2,3-trimethyl-4-oxobutyl)benzamide] gave a GI50 in assay [2] of 840 nM. Further, the pIC50 against TIP48/TIP49 complex is 7.11.
